Reference: US20200087258A1, “INHIBITOR OF CITRATE TRANSPORTER AND THEIR USE IN THERAPY” (Eternygen GmbH, priority 2017, published 2020)
pIC50: −log10 of the molar value.

Legend:
Assay type in all cases: cell-based
INDY [1] = biological target: T1, INDY (Homo sapiens, UniProt Q86YT5); test: 14C-citrate uptake in HEK293 cells overexpressing recombinant human INDY (NaCT); design: expressed in transfected cells; host or cells: HEK293
In short: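 HEK293 cells overexpressing human NaCT, 50,000/well, preincubated 5-30 min at 37 °C with compound in pH 6.5 Na+ buffer. 14C-citrate ([…]) uptake then ran 20-90 min at 37 °C, followed by ice-cold washes, NaOH lysis and scintillation counting. 10 mM citrate served as positive control.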

INDY [2] = biological target: T1, INDY; test: 14C-citrate uptake in HepG2 cells endogenously expressing INDY (NaCT); details: endogenous INDY
In short: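 HepG2 cells, which express INDY endogenously, were preincubated with compound for 5 min at 37 °C in pH 6.5 Na+ citrate uptake buffer. 14C-citrate ([…]) was then added for 90 min at 37 °C. After washing and NaOH lysis, uptake was measured by scintillation counting, with 5 mM citrate as positive control.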

GLT-1 = biological target: T2, GLT-1 (Homo sapiens, UniProt P43004); test: 3H-glutamate uptake counter assay in HEK293 cells overexpressing human GLT-1
T2 construct: host or cells: HEK293 (virus made in GP293 packaging cells)
Method: (§1) The compound was obtained by screening of a library containing more than 50,000 lead-like compounds and fragments. The library was tested using a functional citrate uptake assay with HEK293 cells overexpressing recombinant human INDY. The following hit confirmation was conducted in the same assay system. To confirm the activity of selected compounds on the target INDY another cell assay was conducted. In this assay system citrate uptake was measured using HepG2 cells which endogenously express INDY. Furthermore selectivity of selected compounds was tested for two other transporters in different assay systems. The first transporter was the glutamate transporter GLT-1 tested in a glutamate uptake assays using HEK293 cells overexpressing recombinant human GLT-1. The second transporter was the glucose transporter GLUT1 tested in a glucose uptake assay using Huh-7 cells which endogenously express GLUT1. Compounds were considered to be selective with an at least 5-fold higher activity for INDY than for the other two transporters.
(§2) Cells were maintained in cell medium using cell culture grade flasks (CellSTACK Corning, 500 cm2 dishes or T175 depending on cell number). The selection antibiotic and G418 (800 μg/ml) was added during cultivation but not for seeding into assay plates. For splitting, cells were washed with PBS (w/o Ca2+, Mg2+, phenol red) and detached with Trypsin/EDTA. Throughout cultivation cells were kept sub-confluent. Detached cells (50,000 cells/well) were seeded in 96-well plates (white, clear bottom from Corning #655098) and incubated over night before usage in the assay. The following media were used. For HEK293 cells expressing INDY MEM (PAA)+10% FCS+1×P/S+2 mM L-Gln; for HEK293 cells expressing GLT-1 DMEM (Gibco)+10% FCS+400 µg/ml G418; for Huh7 cells DMEM (Gibco)+10% FCS+2 mM L-Gin (+1×P/S); for HepG2 cells MEM (PAA, Cat # E15-024)+10% FCS+2 mM L-Gin+1×NEAA+1 mM Na-Pyruvat
The following assay buffers for the particular uptake reaction were used. Citrate uptake buffer: 120 mM NaCl, 5.4 mM KCl, 0.8 mM MgSO4, 5 mM glucose, 1.8 mM CaCl2, 25 mM Hepes, 25 mM MES, pH 6.5. Glutamate uptake buffer: HBSS, 1 mM CaCl2, 1 mM MgCl2, 20 mM Hepes pH 7.4. Glucose uptake buffer: 25 mM Hepes+25 mM MES pH 7.4, 120 mM NaCl, 5.4 mM KCl, 1.8 mM CaCl2, 0.8 mM MgSO4.
As a counter assay, Glutamate uptake by the GLT-1 transporter was used. The principle of the assay is to measure the uptake of ^3H labelled glutamate into HEK cells, which overexpress human GLT-1.
The generation of a GLT-1 cell line was performed as follows: human GLT11 isoform sv1 cDNA (Origene # RC223924) was cloned into vector pFB-Neo-CMV-hGLT1 using QIAfilter Plasmid Midi Kit (Qiagen). Virus was generated in GP293 packaging cells (transfection of plasmid with Lipofectamine 2000+OptiMEM). For transfection into HEK cells GP293, supernatant containing virus was passed through a 0.45 micron sterile filter and DEAE-dextran was added at […] final concentration. The solution was used to transfect HEK293 cells at 37° C., 8.5% CO2. After 24 h selection marker G418 at 400 μg/ml was added and cultivation medium performed in DMEM 10% FBS.
The assay was performed in a 96-well format using repeated washing steps, cell lysis and addition of scintillation fluid. Assay buffer was HBSS, 1 mM CaCl2, 1 mM MgCl2, […] pH 7.4. Cells were seeded into white clear-bottom 96-well plates (50,000/well) in the presence of Poly-D-Lysine and incubated at 37° C. for 16-24 hours. Subsequently the plates were washed once with assay buffer using automated washing/LS 405 Selectors, BioTek ending with a buffer volume of 40 μl. Then 5 μl of compound solution in assay buffer was added and incubated for 20 min at 37° C. in cell incubator, HERA cell Heraeus. Afterwards 10 μl of substrate 3H-Glu (3 nM) were added and incubated for another 20 min at 37° C. in cell incubator, HERAcell. Then the plates were washed once with 200 μl cold assay buffer and 150 μl scintillation fluid was added. […]

GLUT1 = biological target: T3, GLUT1 (Homo sapiens, UniProt P11166); test: 3H-glucose uptake counter assay in Huh7 cells endogenously expressing GLUT1; details: endogenous GLUT1
T3 construct: Huh-7 cells which endogenously express GLUT1; endogenous in cells; host or cells: Huh-7
T3 sequence (P11166 1-492): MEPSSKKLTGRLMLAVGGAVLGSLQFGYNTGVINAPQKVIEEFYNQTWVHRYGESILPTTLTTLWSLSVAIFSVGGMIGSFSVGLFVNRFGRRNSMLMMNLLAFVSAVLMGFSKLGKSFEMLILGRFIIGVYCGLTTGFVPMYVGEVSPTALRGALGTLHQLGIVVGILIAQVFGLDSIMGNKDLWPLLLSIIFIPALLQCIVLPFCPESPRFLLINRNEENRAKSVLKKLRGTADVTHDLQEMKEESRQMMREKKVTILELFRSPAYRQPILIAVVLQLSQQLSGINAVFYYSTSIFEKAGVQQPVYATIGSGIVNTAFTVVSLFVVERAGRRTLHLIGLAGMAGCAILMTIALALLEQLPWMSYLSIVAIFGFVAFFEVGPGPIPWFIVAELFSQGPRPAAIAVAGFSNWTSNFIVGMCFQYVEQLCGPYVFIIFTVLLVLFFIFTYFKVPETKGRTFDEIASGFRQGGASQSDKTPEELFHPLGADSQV
Method: as §1
as §2, with “Na-Pyruvat […]” for “Na-Pyruvat”
Glucose uptake in Huh7 cells was measured as a counter assay. […] After 20 min incubation at RT plates were measured using TopCount system, Perkin Elmer. […]

T1 sequence (Q86YT5 whole entry): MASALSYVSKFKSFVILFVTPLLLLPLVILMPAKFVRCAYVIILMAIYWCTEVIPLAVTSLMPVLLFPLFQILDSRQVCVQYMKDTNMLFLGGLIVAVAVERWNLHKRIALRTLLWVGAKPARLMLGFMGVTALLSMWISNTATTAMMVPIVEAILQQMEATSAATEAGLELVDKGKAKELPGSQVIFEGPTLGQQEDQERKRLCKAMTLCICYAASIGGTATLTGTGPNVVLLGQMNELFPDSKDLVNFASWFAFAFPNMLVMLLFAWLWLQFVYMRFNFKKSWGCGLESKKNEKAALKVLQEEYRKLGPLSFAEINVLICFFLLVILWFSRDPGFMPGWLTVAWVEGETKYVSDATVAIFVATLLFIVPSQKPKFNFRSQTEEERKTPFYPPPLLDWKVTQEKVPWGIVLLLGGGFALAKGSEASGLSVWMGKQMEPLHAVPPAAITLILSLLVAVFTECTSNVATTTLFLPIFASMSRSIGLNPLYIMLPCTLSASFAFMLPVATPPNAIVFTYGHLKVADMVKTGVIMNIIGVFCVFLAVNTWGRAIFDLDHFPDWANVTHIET
T2 sequence (P43004 whole entry): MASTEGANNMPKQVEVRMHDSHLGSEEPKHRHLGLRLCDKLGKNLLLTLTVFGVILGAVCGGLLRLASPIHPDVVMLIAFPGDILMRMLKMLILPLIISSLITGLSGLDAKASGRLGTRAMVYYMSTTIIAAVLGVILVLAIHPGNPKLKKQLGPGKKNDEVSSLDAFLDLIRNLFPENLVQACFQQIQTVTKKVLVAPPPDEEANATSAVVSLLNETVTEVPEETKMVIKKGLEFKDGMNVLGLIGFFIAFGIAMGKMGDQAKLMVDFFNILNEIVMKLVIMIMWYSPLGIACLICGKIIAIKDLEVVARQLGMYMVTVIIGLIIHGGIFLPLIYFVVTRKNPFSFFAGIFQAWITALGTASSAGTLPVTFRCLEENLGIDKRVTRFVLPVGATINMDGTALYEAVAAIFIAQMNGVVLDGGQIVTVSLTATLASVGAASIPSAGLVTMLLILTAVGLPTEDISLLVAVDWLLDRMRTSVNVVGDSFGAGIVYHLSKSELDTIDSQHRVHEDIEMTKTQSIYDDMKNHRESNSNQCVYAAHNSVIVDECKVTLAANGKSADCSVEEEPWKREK

| SMILES | pIC50 (INDY [1]) | pIC50 (INDY [2]) | pIC50 (GLT-1) | pIC50 (GLUT1) |
| --- | --- | --- | --- | --- |
| O=C(NCc1ccccc1O)C1CCN(S(=O)(=O)c2cc(Cl)cc(Cl)c2)CC1 [Example 79, 1-(3,5-dichlorobenzenesulfonyl)-N-[(2-hydroxyphenyl)methyl]pipendine-4-carboxamide] | 6.70 | 7.00 | < 4.70 | – |
| O=C(NCc1ccccn1)C1CCN(S(=O)(=O)c2ccc(Cl)cc2Cl)CC1 [Example 73, 1-(2,4-dichlorobenzenesulfonyl)-N-[(pyridin-2-yl)methyl]pipendine-4-carboxamide] | 5.62 | 5.80 | < 4.70 | – |
| O=C(NCc1ccccn1)C1CCN(S(=O)(=O)c2cc(Cl)cc(Br)c2)CC1 [Example 96, 1-(3-bromo-5-chlorobenzenesulfonyl)-N-[(pyridin-2-yl)methyl]piperidine-4-carboxamide] | 6.40 | 6.52 | < 4.70 | – |
| O=C(NCc1ccccc1O)C1CCN(S(=O)(=O)c2ccc(C(F)(F)F)cc2)CC1 [Example 82, N-[(2-hydroxyphenyl)methyl]-1-[4-(trifluoromethyl)benzenesulfonyl]pipendine-4-carboxamide] | 5.96 | 6.22 | < 4.70 | – |
| CC(C)(C)c1ccc(S(=O)(=O)N2CCC(C(=O)NCc3ccccn3)CC2)cc1 [Example 37, 1-(4-tert-butylbenzenesulfonyl)-N-[(pyridin-2-yl)methyl]piperidine-4-carboxamide] | 6.10 | 5.96 | < 4.70 | – |
| O=C(NCc1ccccc1F)C1CCN(S(=O)(=O)c2ccc(OC(F)(F)F)cc2)CC1 [Example 29, N-[(2-fluorophenyl)methyl]-1-[4-(trifluoromethoxy)benzenesulfonyl]piperidine-4-carboxamide] | 6.30 | 6.40 | < 4.70 | – |
| O=C(NCc1ccccc1)C1CCN(S(=O)(=O)c2cc(Cl)cc(Cl)c2)CC1 [Example 103, N-benzyl-1-(3,5-dichlorobenzenesulfonyl)piperidine-4-carboxamide] | 7.00 | 7.00 | < 4.70 | – |
| CC(F)c1cccc(S(=O)(=O)N2CCC(C(=O)NCc3ccccc3F)CC2)c1 (stereo not drawn) [Example 112, 1-[3-(1-fluoroethyl)benzenesulfonyl]-N-[(2-fluorophenyl)methyl]piperidine-4-carboxamide] | 5.85 | 6.05 | < 4.70 | – |
| [N-]=[N+]=NCc1ccccc1CNC(=O)C1CCN(S(=O)(=O)c2cc(Cl)cc(Cl)c2)CC1 [Example 92, N-([2-(azidomethyl)phenyl]methyl)-1-(3,5-dichlorobenzenesulfonyl)piperidine-4-carboxamide] | 6.00 | 6.10 | < 4.70 | – |
| Cc1cc(C)cc(S(=O)(=O)N2CCC(C(=O)NCc3ccccn3)CC2)c1 [Example 60, 1-(3,5-dimethylbenzenesulfonyl)-N-[(pyridin-2-yl)methyl]piperidine-4-carboxamide] | 5.89 | 6.15 | < 4.70 | – |
| Nc1ccccc1CNC(=O)C1CCN(S(=O)(=O)c2cc(Cl)cc(Cl)c2)CC1 [Example 81, N-[(2-aminophenyl)methyl]-1-(3,5-dichlorobenzenesulfonyl)pipendine-4-carboxamide] | 6.40 | 7.00 | < 4.70 | – |
| O=C(NCc1ccccc1F)C1CN(S(=O)(=O)/C=C/c2ccccc2)C1 [Example 1, N-[(2-fluorophenyl)methyl]-1-[(E)-phenylethenesulfonyl]azetidine-3-carboxamide] | – | 5.27 | – | < 4.30 |
| CC(C)c1ccc(S(=O)(=O)N2CCC(C(=O)NCc3ccccn3)CC2)cc1 [Example 111, 1-[4-(propan-2-yl)benzenesulfonyl]-N-[(pyridin-2-yl)methyl]piperidine-4-carboxamide] | 5.57 | 5.28 | < 4.70 | – |
| CC(C)(C)c1ccc(S(=O)(=O)N2CC(C(=O)NCc3ccccc3Cl)C2)cc1 [Example 49, 1-(4-tert-butylbenzenesulfonyl)-N-[(2-chlorophenyl)methyl]azetidine-3-carboxamide] | 5.19 | 5.05 | < 4.70 | – |
| O=C(NCc1cccc(F)c1)C1CCN(S(=O)(=O)/C=C/c2ccccc2)CC1 [Example 21, N-[(3-fluorophenyl)methyl]-1-[(E)-2-phenylethenesulfonyl]piperidine-4-carboxamide] | 5.13 | < 4.70 | – | – |
| O=C(NCc1cccc(F)c1)C1CCN(S(=O)(=O)c2cc(Cl)cc(Cl)c2)CC1 [Example 115, 1-(3,5-dichlorobenzenesulfonyl)-N-[(3-fluorophenyl)methyl]piperidine-4-carboxamide] | 6.70 | 7.00 | – | – |
